Reference: patent publication US9096559B2, “4-carboxybenzylamino derivatives as histone deacetylase inhibitors” (Merck Sharp & Dohme Corp., priority 2007, dated 2015)
Read-outs that look alike come from different tables or passages of the source.

Tests used:
HCT-116 = HCT-116 anti-proliferation (GI50); assay type: cell-based, human; settings: means of n ≧ 2 experiments
Method: (§1) The novel compounds of the present invention were tested for their ability to inhibit proliferation of the human cervical cancer (HeLa) and colon carcinoma (HCT116) cells.
In this assay, also referred to as the Vialight Assay, cellular ATP levels are measured as a means of quantifying cellular proliferation. This assay makes use of a bioluminescent method from Cambrex (ViaLight PLUS, cat. #LT07-121). In the presence of ATP, luciferase converts luciferin to oxyluciferin and light. The amount of light produced (emission at 565 nm) is measured and correlates with a relative amount of proliferation. Human cervical cancer (HeLa) or colon carcinoma (HCT116) cells were incubated with vehicle or increasing concentrations of compound for 48, 72 or 96 hours. Cell proliferation was quantified by adding the cell lysis reagent (provided in the Vialight assay kit) directly to culture wells, followed by addition of the ATP-monitoring reagent (containing luciferase/luciferin). The amount of light produced is then measured (emission at 565 nm). The quantity of light produced, as measured by […], is directly proportional to the number of living cells in culture. […]

[1] = biological target: histone deacetylase, subtype 1 (HDAC1) (Homo sapiens (Human), UniProt Q13547); test: HDAC1-Flag in vitro deacetylation assay; assay type: biochemical
Chain of histone deacetylase, subtype 1 (HDAC1) (Q13547 whole entry): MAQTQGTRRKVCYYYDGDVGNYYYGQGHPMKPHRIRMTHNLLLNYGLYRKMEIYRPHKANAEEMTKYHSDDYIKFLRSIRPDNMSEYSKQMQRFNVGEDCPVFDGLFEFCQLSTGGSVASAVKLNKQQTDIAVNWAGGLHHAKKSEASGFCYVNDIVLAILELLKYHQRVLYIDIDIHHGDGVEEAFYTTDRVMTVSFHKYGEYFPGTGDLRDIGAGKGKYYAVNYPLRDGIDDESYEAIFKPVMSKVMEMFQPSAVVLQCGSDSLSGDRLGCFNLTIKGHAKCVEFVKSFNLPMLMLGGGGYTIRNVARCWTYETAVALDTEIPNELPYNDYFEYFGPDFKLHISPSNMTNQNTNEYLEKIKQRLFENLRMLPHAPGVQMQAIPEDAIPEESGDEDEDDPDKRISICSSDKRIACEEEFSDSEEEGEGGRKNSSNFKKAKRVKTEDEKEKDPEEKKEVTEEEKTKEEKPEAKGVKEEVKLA
In short: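 Enzyme: Flag epitope-tagged human HDAC1 complex immunopurified from stably expressing mammalian cells. Substrate carries an acetylated lysine side chain; deacetylation yields a fluorophore proportional to activity, measured as fluorescence.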

IKr ion channel = IKr ion channel (Homo sapiens (Human), UniProt Q12809); test: Displacement binding assay using radio-labeled MK-499
Chain of IKr ion channel (Q12809 whole entry): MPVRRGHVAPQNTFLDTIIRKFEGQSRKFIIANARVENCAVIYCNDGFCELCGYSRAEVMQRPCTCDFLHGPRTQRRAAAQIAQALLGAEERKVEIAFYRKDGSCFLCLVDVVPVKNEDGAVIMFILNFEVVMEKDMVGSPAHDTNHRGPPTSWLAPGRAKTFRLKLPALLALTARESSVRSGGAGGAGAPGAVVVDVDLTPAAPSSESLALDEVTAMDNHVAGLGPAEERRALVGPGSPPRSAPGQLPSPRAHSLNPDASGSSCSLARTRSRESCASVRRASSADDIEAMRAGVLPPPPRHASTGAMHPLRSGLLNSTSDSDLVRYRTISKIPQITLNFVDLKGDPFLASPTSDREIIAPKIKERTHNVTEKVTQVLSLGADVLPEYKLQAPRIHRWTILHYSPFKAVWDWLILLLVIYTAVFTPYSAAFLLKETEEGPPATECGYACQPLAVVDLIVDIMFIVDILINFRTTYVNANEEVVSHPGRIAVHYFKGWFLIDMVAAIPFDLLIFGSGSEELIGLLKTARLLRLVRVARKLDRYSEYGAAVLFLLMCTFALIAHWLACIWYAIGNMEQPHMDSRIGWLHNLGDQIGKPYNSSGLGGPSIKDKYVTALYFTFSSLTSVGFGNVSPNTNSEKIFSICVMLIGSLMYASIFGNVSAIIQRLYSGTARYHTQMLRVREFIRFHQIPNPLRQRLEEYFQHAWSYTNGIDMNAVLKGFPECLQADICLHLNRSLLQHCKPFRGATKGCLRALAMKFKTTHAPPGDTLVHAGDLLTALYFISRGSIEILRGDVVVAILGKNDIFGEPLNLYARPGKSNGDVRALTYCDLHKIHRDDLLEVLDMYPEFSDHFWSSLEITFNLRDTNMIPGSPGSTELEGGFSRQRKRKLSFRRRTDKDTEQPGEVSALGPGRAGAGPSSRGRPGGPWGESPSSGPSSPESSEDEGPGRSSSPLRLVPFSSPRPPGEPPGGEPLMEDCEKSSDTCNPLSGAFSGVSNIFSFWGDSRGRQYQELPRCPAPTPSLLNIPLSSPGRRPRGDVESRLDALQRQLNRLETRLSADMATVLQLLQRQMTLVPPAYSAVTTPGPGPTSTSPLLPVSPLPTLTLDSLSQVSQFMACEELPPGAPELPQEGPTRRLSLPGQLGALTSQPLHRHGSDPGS
Excerpt: (§2) The ancillary pharmacology profiles of the SHI-1:2 carbamate analogs were also gathered to investigate off-target activities (Table 12).

CYP3A4 = CYP3A4 (Homo sapiens (Human), UniProt P08684); test: CYP inhibition potential, CYP3A4; assay type: in vitro ADME
Chain of CYP3A4 (P08684 whole entry): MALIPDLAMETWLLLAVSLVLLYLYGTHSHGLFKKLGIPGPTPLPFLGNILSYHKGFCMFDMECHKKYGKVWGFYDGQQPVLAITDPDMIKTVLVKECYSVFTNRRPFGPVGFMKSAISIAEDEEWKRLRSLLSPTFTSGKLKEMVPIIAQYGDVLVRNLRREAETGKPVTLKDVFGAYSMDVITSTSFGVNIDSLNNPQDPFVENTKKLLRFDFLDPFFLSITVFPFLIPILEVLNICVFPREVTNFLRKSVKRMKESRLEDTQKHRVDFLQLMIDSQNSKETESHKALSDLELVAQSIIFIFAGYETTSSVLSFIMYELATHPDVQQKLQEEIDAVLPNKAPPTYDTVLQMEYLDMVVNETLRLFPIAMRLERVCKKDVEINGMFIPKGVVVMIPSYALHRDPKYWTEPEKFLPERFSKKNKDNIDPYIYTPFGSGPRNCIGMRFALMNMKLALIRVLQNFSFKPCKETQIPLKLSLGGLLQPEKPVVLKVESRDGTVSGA
Excerpt: as §2

CYP2C9 = CYP2C9 (Homo sapiens (Human), UniProt P11712); test: CYP inhibition potential, CYP2C9; assay type: in vitro ADME
Chain of CYP2C9 (P11712 whole entry): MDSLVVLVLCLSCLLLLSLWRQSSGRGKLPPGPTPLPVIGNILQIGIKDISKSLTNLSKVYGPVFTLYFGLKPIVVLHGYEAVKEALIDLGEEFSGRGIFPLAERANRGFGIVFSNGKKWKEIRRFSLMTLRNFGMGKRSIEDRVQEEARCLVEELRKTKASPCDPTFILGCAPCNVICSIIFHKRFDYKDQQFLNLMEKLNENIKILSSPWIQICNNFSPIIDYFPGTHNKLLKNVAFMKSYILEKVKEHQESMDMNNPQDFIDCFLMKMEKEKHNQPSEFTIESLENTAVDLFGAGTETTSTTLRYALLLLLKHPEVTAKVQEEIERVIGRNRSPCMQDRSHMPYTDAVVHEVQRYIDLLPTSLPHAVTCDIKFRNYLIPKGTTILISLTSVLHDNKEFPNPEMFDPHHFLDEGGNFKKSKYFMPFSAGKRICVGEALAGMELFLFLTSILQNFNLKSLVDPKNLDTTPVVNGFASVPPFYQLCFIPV
Excerpt: as §2

CYP2D6 = CYP2D6 (Homo sapiens (Human), UniProt P10635); test: CYP inhibition potential, CYP2D6; assay type: in vitro ADME
Chain of CYP2D6 (P10635 whole entry): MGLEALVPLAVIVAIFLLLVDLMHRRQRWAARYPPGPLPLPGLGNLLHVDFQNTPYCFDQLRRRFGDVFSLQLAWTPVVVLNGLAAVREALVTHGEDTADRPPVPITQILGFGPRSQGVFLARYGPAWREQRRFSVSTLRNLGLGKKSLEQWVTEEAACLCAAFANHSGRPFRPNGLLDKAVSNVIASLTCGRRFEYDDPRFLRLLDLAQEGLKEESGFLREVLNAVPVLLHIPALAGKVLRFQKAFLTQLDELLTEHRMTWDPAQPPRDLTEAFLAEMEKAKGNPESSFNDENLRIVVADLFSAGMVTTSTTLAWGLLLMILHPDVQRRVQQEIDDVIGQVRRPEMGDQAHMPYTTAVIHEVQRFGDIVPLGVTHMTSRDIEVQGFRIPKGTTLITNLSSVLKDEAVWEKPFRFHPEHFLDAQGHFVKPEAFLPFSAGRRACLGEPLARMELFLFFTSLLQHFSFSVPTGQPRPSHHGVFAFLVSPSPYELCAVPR
Excerpt: as §2

[2] = test system: human cervical cancer (HeLa) and colon carcinoma (HCT116) cells; test: ATP (Vialight) cell proliferation assay, 72 hr; assay type: cell-based; settings: IP = inflection point, cell line not given, read-out: Prol-72 hr IP (inflection point)
Method: as §1
In this assay, also referred to as the Vialight Assay, cellular ATP levels are measured as a means of quantifying cellular proliferation. This assay makes use of a bioluminescent method from Cambrex (ViaLight PLUS, cat. #LT07-121). In the presence of ATP, luciferase converts luciferin to oxyluciferin and light. The amount of light produced (emission at 565 nm) is measured and correlates with a relative amount of proliferation. Human cervical cancer (HeLa) or colon carcinoma (HCT116) cells were incubated with vehicle or increasing concentrations of compound for 48, 72 or 96 hours. Cell proliferation was quantified by adding the cell lysis reagent (provided in the Vialight assay kit) directly to culture wells, followed by addition of the ATP-monitoring reagent (containing luciferase/luciferin). The amount of light produced is then measured (emission at 565 nm). The quantity of light produced, as measured by […], is directly proportional to the number of living cells in culture.

[3] = means of n ≧ 2 experiments, read-out: HDAC1 IC50
[4] = IP = inflection point, read-out: HDAC1 IP (inflection point)

Compound | GI50 (HCT-116) [nM] | IC50 [1, 3] [nM] | IC50 (IKr ion channel) [nM] | % CYP Inhibition @ 10 μM 3A4 (CYP3A4) [%] | % CYP Inhibition @ 10 μM 2C9 (CYP2C9) [%] | % CYP Inhibition @ 10 μM 2D6 (CYP2D6) [%] | % MK-499 Binding Inhibition @ 10 μM (IKr ion channel) [%] | IC50 [1, 4] [nM] | IC50 [2] [nM]
Nc1ccc(-c2ccccc2)cc1NC(=O)c1ccc(CNC(=O)OCc2cccnc2)cc1 [Example 2a] | 225 | – | – | – | – | – | – | – | –
Nc1ccc(-c2ccccc2)cc1NC(=O)c1ccc(CNC(=O)CCc2cccnc2)cc1 [Example 14a] | 337 | 11 | 3700 | 65 | 73 | 25 | – | – | –
Nc1ccc(-c2ccccc2)cc1NC(=O)c1ccc(CNC(=O)OCc2ccccn2)cc1 [Example 14b] | 435 | 8 | – | 38 | 67 | 29 | 51 | – | –
CCOC(=O)NCc1ccc(C(=O)Nc2cc(-c3ccccc3)ccc2N)cc1 [Example 14e] | 230 | 13 | – | 22 | 35 | 26 | 40 | – | –
COC(=O)NCc1ccc(C(=O)Nc2cc(-c3ccccc3)ccc2N)cc1 [Example 14f] | 230 | – | – | 23 | 46 | 49 | 28 | – | –
CCCC(=O)NCc1ccc(C(=O)Nc2cc(-c3ccccc3)ccc2N)cc1 [Example 14g] | 220 | 10 | – | 33 | 27 | 28 | 38 | – | –
CCC(=O)NCc1ccc(C(=O)Nc2cc(-c3ccccc3)ccc2N)cc1 [Example 14h] | 150 | 10 | – | 30 | 28 | 38 | 24 | – | –
Nc1ccc(-c2ccccc2)cc1NC(=O)c1ccc(CNC(=O)C2CCCCC2)cc1 [Example 14i] | 335 | 20 | – | 12 | 32 | 17 | 30 | – | –
Nc1ccc(-c2cccc(F)c2)cc1NC(=O)c1ccc(CNc2ccncc2)cc1 [Example 68, N-(4-amino-3′-fluoro-3-biphenylyl)-4-[(4-pyridinylamino)methyl]benzamide] | – | – | – | – | – | – | – | 27 | 9100
Cc1csc(-c2ccc(N)c(NC(=O)c3ccc(CNc4ccncc4)cc3)c2)c1 [Example 69, N-[2-amino-5-(4-methyl-2-thienyl)phenyl]-4-[(4-pyridinylamino)methyl]benzamide] | – | – | – | – | – | – | – | 15 | 9700
Cc1cscc1-c1ccc(N)c(NC(=O)c2ccc(CNc3ccncc3)cc2)c1 [Example 70, N-[2-amino-5-(4-methyl-3-thienyl)phenyl]-4-[(4-pyridinylamino)methyl]benzamide] | – | – | – | – | – | – | – | 180 | 13000
Nc1ccc(-c2ccccc2)cc1NC(=O)c1ccc(CN2C(=O)OC[C@@H]2c2ccccc2)cc1 [Example 118, N-(4-aminobiphenyl-3-yl)-4-{[(4S)-2-oxo-4-phenyl-1,3-oxazolidin-3-yl]methyl}benzamide] | – | – | – | – | – | – | – | 64 | 1400
Nc1ccc(-c2ccccc2)cc1NC(=O)c1ccc(CN2C(=O)OC[C@H]2Cc2ccccc2)cc1 [Example 119, N-(4-aminobiphenyl-3-yl)-4-{[(4R)-2-oxo-4-(phenylmethyl)-1,3-oxazolidin-3-yl]methyl}benzamide] | – | – | – | – | – | – | – | 89 | 1700
Nc1ccc(-c2cccs2)cc1NC(=O)c1ccc(CN2C(=O)OC[C@H]2Cc2ccccc2)cc1 [Example 120, N-[2-amino-5-(2-thienyl)phenyl]-4-{[(4R)-2-oxo-4-(phenylmethyl)-1,3-oxazolidin-3-yl]methyl}benzamide] | – | – | – | – | – | – | – | 84 | 920
Nc1ccc(-c2ccccc2)cc1NC(=O)c1ccc(CN2C(=O)OC[C@@H]2Cc2ccccc2)cc1 [Example 121, N-(4-aminobiphenyl-3-yl)-4-{[(4S)-2-oxo-4-(phenylmethyl)-1,3-oxazolidin-3-yl]methyl}benzamide] | – | – | – | – | – | – | – | 96 | 1400
Nc1ccc(-c2ccccc2)cc1NC(=O)c1ccc(CN2C(=O)OC[C@H]2c2ccccc2)cc1 [Example 122, N-(4-aminobiphenyl-3-yl)-4-{[(4R)-2-oxo-4-phenyl-1,3-oxazolidin-3-yl]methyl}benzamide] | – | – | – | – | – | – | – | 58 | 1100
CC(=O)N(Cc1ccc(C(=O)Nc2cc(-c3cccs3)ccc2N)cc1)Cc1cn(C)nn1 [Example 123, 4-({Acetyl[(1-methyl-1H-1,2,3-triazol-4-yl)methyl]amino}methyl)-N-[2-amino-5-(2-thienyl)phenyl]benzamide] | – | – | – | – | – | – | – | 9.5 | 87
Nc1ccc(-c2cccs2)cc1NC(=O)c1ccc(CNCC(=O)O)cc1 [Example 124, {[4-({[2-amino-5-(2-thienyl)phenyl]amino}carbonyl)benzyl]amino}acetic acid] | – | – | – | – | – | – | – | 34 | > 20000
Nc1ccc(-c2ccsc2)cc1NC(=O)c1ccc(CNCC(=O)O)cc1 [Example 125, {[4-({[2-amino-5-(3-thienyl)phenyl]amino}carbonyl)benzyl]amino}acetic acid] | – | – | – | – | – | – | – | 42 | > 20000
